# According to US6815460B2, “Process for preparing prodrugs of benzenesulfonamide-containing cox-2 inhibitors” (Pharmacia Corporation, priority 1996, dated 2004):
# Where a name gives a salt, the structure may show the parent alone.
row,Structure (SMILES),melting point
1,CCC(=O)NS(=O)(=O)c1ccc(C2=C(c3ccccc3)COC2=O)cc1 [Example 83],182.3 to 183.4 °C
2,"CC(=O)NS(=O)(=O)c1ccc(-c2oc(C)nc2-c2ccccc2)cc1 (as salt: sodium) [Example 49, N-[[4-(2-Methyl-4-phenyloxazol-5-yl)phenyl]sulfonyl]acetamide, Sodium Salt]",259.9 to 260 °C
3,"CCCC(=O)NS(=O)(=O)c1ccc(-c2c(-c3ccccc3)noc2C(F)F)cc1 [Example 56, N-[[4-[5-(Difluoromethyl)-3-phenylisoxazol-4-yl]phenyl]sulfonyl]butanamide]",154.9 to 155.9 °C
4,"CC(=O)NCC(=O)NS(=O)(=O)c1ccc(-c2c(-c3ccccc3)noc2C)cc1 [Example 82, 2-(Acetylamino)-N-[[4-(5-methyl-3-phenylisoxazol-4-yl)phenyl]sulfonyl]acetamide]",218.2 to 219.3 °C
5,"Cc1onc(-c2ccccc2)c1-c1ccc(S(=O)(=O)NCC(=O)O)cc1.O=C(O)O [Example 79, N-[[4-(5-Methyl-3-phenylisoxazol-4-yl)phenyl]sulfonyl]glycine]",242 to 248 °C
6,CCC(=O)NS(=O)(=O)c1ccc(-c2c(-c3ccccc3)noc2CO)cc1.[Na],153.5 to 157.1 °C
7,"Cc1onc(-c2ccccc2)c1-c1ccc(S(=O)(=O)NCC(=O)[O-])cc1.[Na+] [Example 80, N-[[4-(5-Methyl-3-phenylisoxazol-4-yl)phenyl]sulfonyl]glycine, Sodium Salt]",216 °C (dec.)
8,"Cc1onc(-c2ccccc2)c1-c1ccc(S(=O)(=O)NC(=O)CN)cc1 [Example 81, 2-Amino-N-[[4-(5-methyl-3-phenylisoxazol-4-yl)phenyl]sulfonyl]acetamide]",230.7 to 234.7 °C
9,COc1ccc2c(c1F)CSc1c(C(F)F)nn(-c3ccc(S(=O)(=O)NC(C)=O)cc3)c1-2.[Na],> 300 °C
10,"COC(=O)C(=O)NS(=O)(=O)c1ccc(-c2c(-c3ccccc3)noc2C)cc1 [Example 50, Methyl [[[4-(5-methyl-3-phenylisoxazol-4-yl)phenyl]sulfonyl]amino]oxoacetate]",171.1 to 172.3 °C
11,"COCCC(=O)NS(=O)(=O)c1ccc(-c2c(-c3ccccc3)noc2C)cc1 [Example 29, 3-Methoxy-N-[[4-(5-methyl-3-phenylisoxazol-4-yl)phenyl]sulfonyl]propanamide]",139.7 to 140.9 °C
12,"CC(=O)NS(=O)(=O)c1ccc(-c2c(-c3ccccc3)noc2C)cc1 [Example 39, N-[[4-[5-Methyl-3-phenylisoxazol-4-yl]phenyl]sulfonyl]acetamide]",169.3 to 170.6 °C
13,"Cc1onc(-c2ccccc2)c1-c1ccc(S(=O)(=O)NC=O)cc1 [Example 60, N-[[4-(5-Methyl-3-phenylisoxazol-4-yl)phenyl]sulfonyl]formamide]",111 to 122 °C
14,"COC(=O)CCC(=O)NS(=O)(=O)c1ccc(-c2c(-c3ccccc3)noc2C)cc1 [Example 23, Methyl 4-[[[4-(5-methyl-3-phenylisoxazol-4-yl]phenyl]sulfonyl]amino]-4-oxobutanoate]",114.9 to 117.7 °C
15,CC(=O)NS(=O)(=O)c1ccc(-c2c(-c3ccccc3)noc2C)cc1.[K],279.7 to 283.7 °C
16,"Cc1onc(-c2ccccc2)c1-c1ccc(S(=O)(=O)NC(=O)C(C)C)cc1 [Example 15, 2-Methyl-N-[[4-(5-methyl-3-phenylisoxazol-4-yl)phenyl]sulfonyl]propanamide]",115 to 115.6 °C
17,"CCC(=O)NS(=O)(=O)c1ccc(-c2c(C)c(C)nn2-c2ccccc2)cc1 [Example 68, N-[[4-[3,4-Dimethyl-1-phenyl-1H-pyrazol-5-yl]phenyl]sulfonyl]propanamide]",187.4 to 188.7 °C
18,"CCCC(=O)NS(=O)(=O)c1ccc(-c2c(-c3ccccc3)noc2C)cc1 (as salt: sodium) [Example 25, N-[[4-(5-Methyl-3-phenylisoxazol-4-yl)phenyl]sulfonyl]butanamide, Sodium Salt]",273.5 to 277.7 °C
19,"CC(=O)NS(=O)(=O)c1ccc(-c2c(-c3ccccc3)noc2COC(C)=O)cc1 [Example 73, N-[[4-[5-Acetoxymethyl-3-phenylisoxaxzol-4-yl]phenyl]sulfonyl]acetamide]",137 to 139 °C
20,"CCCCC(=O)NS(=O)(=O)c1ccc(-c2c(-c3ccccc3)noc2C)cc1 [Example 26, N-[[4-(5-Methyl-3-phenylisoxazol-4-yl)phenyl]sulfonyl]pentanamide]",134.1 to 136.5 °C
21,CCOCC(=O)NS(=O)(=O)c1ccc(-c2c(-c3ccccc3)noc2C)cc1.[Na],207.2 to 210 °C

# Other lines, results leading:
row,melting point,Structure (SMILES)
1,203 to 204 °C,"CCCC(=O)NS(=O)(=O)c1ccc(-n2cc(C(F)(F)F)nc2-c2cncc(C)c2)cc1 [Example 7, N-[[4-[2-(5-Methylpyridin-3-yl)-4-(trifluoromethyl)-1H-imidazol-1-yl]phenyl]sulfonyl]butanamide]"
2,268 to 270 °C,"CC(=O)NS(=O)(=O)c1ccc(-n2cc(C(F)(F)F)nc2-c2cncc(C)c2)cc1 [Example 3, N-[[4-[2-(5-Methylpyridin-3-yl)-4-(trifluoromethyl)-1H-imidazol-1-yl]phenyl]sulfonyl]acetamide]"
3,298 °C (dec.),"CCC(=O)[N-]S(=O)(=O)c1ccc(-n2cc(C(F)(F)F)nc2-c2cccnc2C)cc1.[Na+] [Example 85, N-[[4-(2-(2-Methylpyridin-3-yl)-4-trifluoromethylimidazol-1-yl]phenyl]sulfonyl]propanamide, Sodium Salt]"
4,243 to 245 °C,"CC(=O)NS(=O)(=O)c1ccc(-n2cc(C(F)(F)F)nc2-c2cccnc2C)cc1 [Example 5, N-[[4-[2-(2-Methylpyridin-3-yl)-4-(trifluoromethyl)-1H-imidazol-1-yl]phenyl]sulfonyl]acetamide]"
5,77.9 to 85.1 °C,"CCC(=O)NS(=O)(=O)c1ccc(-n2nc(C(F)(F)F)cc2-c2ccc(Cl)cc2)cc1 [Example 33, N-[[4-[5-(4-Chlorophenyl)-3-(trifluoromethyl)-1H-pyrazol-1-yl]phenyl]sulfonyl]propanamide]"
6,127 to 129 °C,"CC(=O)NS(=O)(=O)c1ccc(C2=C(c3ccc(F)c(Cl)c3)CCC2)cc1 [Example 65, N-[[4-[2-(3-Chloro-4-fluorophenyl)cyclopenten-1-yl]phenyl]sulfonyl]acetamide]"
7,232 to 235 °C,"CC(=O)NS(=O)(=O)c1ccc(-n2cc(C(F)(F)F)nc2-c2cc(C)cc(Cl)c2)cc1 [Example 11, N-[[4-[2-(3-Chloro-5-methylphenyl)-4-(trifluoromethyl)-1H-imidazol-1-yl]phenyl]sulfonyl]acetamide]"
8,112 to 131 °C,"CC(=O)NS(=O)(=O)c1ccc(-c2c(-c3cccc(F)c3)noc2C)cc1 (as salt: sodium) [Example 13, N-[[4-[3-(3-Fluorophenyl)-5-methylisoxazol-4-yl]phenyl]sulfonyl]acetamide]"
9,244 to 246 °C,"CC(=O)NS(=O)(=O)c1ccc(-n2cc(C(F)(F)F)nc2-c2cccnc2)cc1 [Example 1, N-[[4-[2-(3-Pyridinyl)-4-(trifluoromethyl)-1H-imidazol-1-yl]phenyl]sulfonyl]acetamide]"
